Data reported in PubChem BioAssay AID1963846 (Molecular Pharmacology Branch, DTP, NCI, 2024).

Tested on: 454973-116-R2-J3-PDC complex spheroid viability
Test: Anticancer human tumor 454973-116-R2-J3-PDC patient-derived pancreatic carcinoma cell line growth inhibition [POLQ]
Details: for IC50: curve of first compound; for viability, T/C: stronger effect = lower value
Summary of the method: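 PDC + HUVEC + MSC complex spheroids; POLQ inhibitors ± partner drugs; top conc. at/near clinical Cmax, else 10 microM (SN-38 1 microM), half-log dilutions; 37 degrees C, 5% CO2.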

[1] = second compound 0.0316 µM, first compound 0.0316 µM
[2] = second compound 0.0316 µM, first compound 0.1 µM
[3] = second compound 0.0316 µM, first compound 0.316 µM
[4] = second compound 0.0316 µM, first compound 1 µM
[5] = second compound 0.0316 µM, first compound 3.16 µM
[6] = second compound 0.0316 µM, first compound 10 µM
[7] = second compound 0.1 µM, first compound 0.0316 µM
[8] = second compound 0.1 µM, first compound 0.1 µM
[9] = second compound 0.1 µM, first compound 0.316 µM
[10] = second compound 0.1 µM, first compound 1 µM
[11] = second compound 0.1 µM, first compound 3.16 µM
[12] = second compound 0.1 µM, first compound 10 µM
[13] = second compound 0.316 µM, first compound 0.0316 µM
[14] = second compound 0.316 µM, first compound 0.1 µM
[15] = second compound 0.316 µM, first compound 0.316 µM
[16] = second compound 0.316 µM, first compound 1 µM
[17] = second compound 0.316 µM, first compound 3.16 µM
[18] = second compound 0.316 µM, first compound 10 µM
[19] = second compound 1 µM, first compound 0.0316 µM
[20] = second compound 1 µM, first compound 0.1 µM
[21] = second compound 1 µM, first compound 0.316 µM
[22] = second compound 1 µM, first compound 1 µM
[23] = second compound 1 µM, first compound 3.16 µM
[24] = second compound 1 µM, first compound 10 µM
[25] = second compound 3.16 µM, first compound 0.0316 µM
[26] = second compound 3.16 µM, first compound 0.1 µM
[27] = second compound 3.16 µM, first compound 0.316 µM
[28] = second compound 3.16 µM, first compound 1 µM
[29] = second compound 3.16 µM, first compound 3.16 µM
[30] = second compound 3.16 µM, first compound 10 µM
[31] = second compound 10 µM, first compound 0.0316 µM
[32] = second compound 10 µM, first compound 0.1 µM
[33] = second compound 10 µM, first compound 0.316 µM
[34] = second compound 10 µM, first compound 1 µM
[35] = second compound 10 µM, first compound 3.16 µM
[36] = second compound 10 µM, first compound 10 µM
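Note: spheroids exposed to drugs for seven days before measurement.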
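Throughout, for viability, T/C: percent viability relative to DMSO vehicle control wells taken as 100%.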

SMILES: CC1COCCN1c1cc(C2(O)CC3CCC(C2)O3)c2cnn(-c3ccn[nH]3)c2n1 (stereo unspecified) + Nc1ccc(C#CCN(C(=O)Cc2ncc(C(F)(F)F)cc2C(F)(F)F)c2ccc(F)cc2)nn1
- IC50 (second compound 0.0316 µM): 0.12 µM
- IC50 (second compound 0.1 µM): 0.114 µM
- IC50 (second compound 0.316 µM): 0.0868 µM
- IC50 (second compound 1 µM): 0.0952 µM
- IC50 (second compound 3.16 µM): 0.104 µM
- IC50 (second compound 10 µM): 0.108 µM
- viability, T/C [1]: 83.7%
- viability, T/C [2]: 55.6%
- viability, T/C [3]: 21%
- viability, T/C [4]: 12.5%
- viability, T/C [5]: 16.3%
- viability, T/C [6]: 10.3%
- viability, T/C [7]: 84.1%
- viability, T/C [8]: 54%
- viability, T/C [9]: 19.8%
- viability, T/C [10]: 12.3%
- viability, T/C [11]: 15.2%
- viability, T/C [12]: 13%
- viability, T/C [13]: 87.1%
- viability, T/C [14]: 44.8%
- viability, T/C [15]: 18.7%
- viability, T/C [16]: 11.5%
- viability, T/C [17]: 14.3%
- viability, T/C [18]: 11.2%
- viability, T/C [19]: 80.4%
- viability, T/C [20]: 48.6%
- viability, T/C [21]: 15.4%
- viability, T/C [22]: 11%
- viability, T/C [23]: 13.4%
- viability, T/C [24]: 11.7%
- viability, T/C [25]: 88.1%
- viability, T/C [26]: 51.1%
- viability, T/C [27]: 20.9%
- viability, T/C [28]: 10.7%
- viability, T/C [29]: 15.2%
- viability, T/C [30]: 10.3%
- viability, T/C [31]: 91.6%
- viability, T/C [32]: 52.4%
- viability, T/C [33]: 14.7%
- viability, T/C [34]: 9.37%
- viability, T/C [35]: 11.2%
- viability, T/C [36]: 10.2%

SMILES: C=CC(=O)N1CCN(c2nc(=O)n(-c3c(C)ccnc3C(C)C)c3nc(-c4c(O)cccc4F)c(F)cc23)C(C)C1 (stereo unspecified) + Nc1ccc(C#CCN(C(=O)Cc2ncc(C(F)(F)F)cc2C(F)(F)F)c2ccc(F)cc2)nn1
- IC50 (second compound 0.0316 µM): > 10 µM
- IC50 (second compound 0.1 µM): > 10 µM
- IC50 (second compound 0.316 µM): > 10 µM
- IC50 (second compound 1 µM): > 10 µM
- IC50 (second compound 3.16 µM): > 10 µM
- IC50 (second compound 10 µM): > 10 µM
- viability, T/C [1]: 103%
- viability, T/C [2]: 106%
- viability, T/C [3]: 110%
- viability, T/C [4]: 111%
- viability, T/C [5]: 113%
- viability, T/C [6]: 113%
- viability, T/C [7]: 103%
- viability, T/C [8]: 97.1%
- viability, T/C [9]: 110%
- viability, T/C [10]: 114%
- viability, T/C [11]: 111%
- viability, T/C [12]: 117%
- viability, T/C [13]: 102%
- viability, T/C [14]: 106%
- viability, T/C [15]: 107%
- viability, T/C [16]: 106%
- viability, T/C [17]: 124%
- viability, T/C [18]: 116%
- viability, T/C [19]: 102%
- viability, T/C [20]: 110%
- viability, T/C [21]: 109%
- viability, T/C [22]: 123%
- viability, T/C [23]: 121%
- viability, T/C [24]: 114%
- viability, T/C [25]: 111%
- viability, T/C [26]: 118%
- viability, T/C [27]: 120%
- viability, T/C [28]: 123%
- viability, T/C [29]: 125%
- viability, T/C [30]: 114%
- viability, T/C [31]: 118%
- viability, T/C [32]: 113%
- viability, T/C [33]: 116%
- viability, T/C [34]: 123%
- viability, T/C [35]: 137%
- viability, T/C [36]: 116%

SMILES: CNCc1ccc(-c2[nH]c3cc(F)cc4c3c2CCNC4=O)cc1 + Cc1cccc(N(C)C(=O)C2C(O)CCN2c2nc(C)cc(C(F)(F)F)c2C#N)c1
- IC50 (second compound 0.0316 µM): > 10 µM
- IC50 (second compound 0.1 µM): > 10 µM
- IC50 (second compound 0.316 µM): > 10 µM
- IC50 (second compound 1 µM): > 10 µM
- IC50 (second compound 3.16 µM): > 10 µM
- IC50 (second compound 10 µM): > 10 µM
- viability, T/C [1]: 110%
- viability, T/C [2]: 96.1%
- viability, T/C [3]: 101%
- viability, T/C [4]: 103%
- viability, T/C [5]: 101%
- viability, T/C [6]: 79.1%
- viability, T/C [7]: 94%
- viability, T/C [8]: 108%
- viability, T/C [9]: 97.8%
- viability, T/C [10]: 102%
- viability, T/C [11]: 99.4%
- viability, T/C [12]: 83%
- viability, T/C [13]: 106%
- viability, T/C [14]: 102%
- viability, T/C [15]: 107%
- viability, T/C [16]: 98.9%
- viability, T/C [17]: 104%
- viability, T/C [18]: 85.8%
- viability, T/C [19]: 108%
- viability, T/C [20]: 111%
- viability, T/C [21]: 103%
- viability, T/C [22]: 97.2%
- viability, T/C [23]: 100%
- viability, T/C [24]: 86.6%
- viability, T/C [25]: 109%
- viability, T/C [26]: 105%
- viability, T/C [27]: 105%
- viability, T/C [28]: 106%
- viability, T/C [29]: 106%
- viability, T/C [30]: 82.9%
- viability, T/C [31]: 118%
- viability, T/C [32]: 105%
- viability, T/C [33]: 101%
- viability, T/C [34]: 95.6%
- viability, T/C [35]: 106%
- viability, T/C [36]: 74.9%
